Results reported in patent publication US8829011B2 (Janssen Pharmaceutica NV, priority 2008, dated 2014).
Counter-ions that a name gives are not always drawn.

Experiments:
[1] = molecular target: T1, human recombinant 5-HT6 receptor (Homo sapiens, UniProt P50406); experiment: Affinity for 5-HT6 receptor binding sites (competitive radioligand binding, [3H]LSD); conditions: membranes of HEK-293 with h5-HT6, * = tested as hydrochloride salt
T1 construct: expressed in transfected cells; host or cells: HEK-293
T1 sequence (P50406 whole entry): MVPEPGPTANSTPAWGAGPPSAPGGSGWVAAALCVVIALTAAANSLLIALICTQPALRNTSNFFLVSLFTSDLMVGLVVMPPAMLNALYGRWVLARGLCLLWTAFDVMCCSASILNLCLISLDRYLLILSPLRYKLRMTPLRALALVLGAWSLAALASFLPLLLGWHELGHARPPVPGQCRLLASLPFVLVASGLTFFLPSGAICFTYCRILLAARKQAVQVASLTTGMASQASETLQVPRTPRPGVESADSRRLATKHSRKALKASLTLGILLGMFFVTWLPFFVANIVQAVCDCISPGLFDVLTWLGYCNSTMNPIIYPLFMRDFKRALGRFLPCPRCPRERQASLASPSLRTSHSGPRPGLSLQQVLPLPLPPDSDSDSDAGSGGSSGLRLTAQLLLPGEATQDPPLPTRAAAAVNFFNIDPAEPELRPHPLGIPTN
Summary of the method: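 Membranes from HEK-293 cells stably expressing human 5-HT6, competition against [3H]LSD; nonspecific binding defined with 1 μM clozapine. DMSO ≤0.4% final. Inhibition curves fitted by nonlinear regression.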

rat 5-HT7a receptor = molecular target: T2, rat 5-HT7a receptor (Rattus norvegicus, UniProt P32305); experiment: Affinity for 5-HT7 receptor binding sites (competition radioligand binding, [3H]5-CT); conditions: membranes of HEK-293 cells with rat 5-HT7a; 1 nM [3H]5-CT; * = tested as hydrochloride salt
T2 construct: expressed in transfected cells; host or cells: HEK-293
T2 sequence (P32305 whole entry): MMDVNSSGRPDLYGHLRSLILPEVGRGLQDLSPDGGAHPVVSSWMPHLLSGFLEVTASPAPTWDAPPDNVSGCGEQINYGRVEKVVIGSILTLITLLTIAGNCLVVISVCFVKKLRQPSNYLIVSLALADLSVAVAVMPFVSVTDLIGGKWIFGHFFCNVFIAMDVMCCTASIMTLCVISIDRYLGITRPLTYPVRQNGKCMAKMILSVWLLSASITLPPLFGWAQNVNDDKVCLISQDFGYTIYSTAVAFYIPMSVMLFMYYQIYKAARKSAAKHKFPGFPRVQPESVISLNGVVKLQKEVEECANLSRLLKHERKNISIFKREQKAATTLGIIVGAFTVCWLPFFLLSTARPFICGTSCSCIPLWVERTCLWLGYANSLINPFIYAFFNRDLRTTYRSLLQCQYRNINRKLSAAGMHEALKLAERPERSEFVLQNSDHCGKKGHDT
Summary of the method: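 Membranes from HEK-293 cells stably expressing rat 5-HT7a receptor, in 50 mM Tris-HCl pH 7.5 with 5 mM EDTA, incubated 60 min at RT with 1 nM [3H]5-CT and increasing compound; nonspecific binding defined with 10 μM 5-HT. Bound radioactivity read after rapid filtration; inhibition curves fitted by nonlinear regression; triplicate.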

[2] = molecular target: T3, human recombinant 5-HT2C receptor (Homo sapiens, UniProt P28335); experiment: Affinity for 5-HT2C receptor binding sites (competitive radioligand binding, [3H]mesulergine); conditions: membranes of CHO with h5-HT2C, * = tested as hydrochloride salt
T3 construct: expressed in transfected cells; host or cells: CHO
T3 sequence (P28335 33-458): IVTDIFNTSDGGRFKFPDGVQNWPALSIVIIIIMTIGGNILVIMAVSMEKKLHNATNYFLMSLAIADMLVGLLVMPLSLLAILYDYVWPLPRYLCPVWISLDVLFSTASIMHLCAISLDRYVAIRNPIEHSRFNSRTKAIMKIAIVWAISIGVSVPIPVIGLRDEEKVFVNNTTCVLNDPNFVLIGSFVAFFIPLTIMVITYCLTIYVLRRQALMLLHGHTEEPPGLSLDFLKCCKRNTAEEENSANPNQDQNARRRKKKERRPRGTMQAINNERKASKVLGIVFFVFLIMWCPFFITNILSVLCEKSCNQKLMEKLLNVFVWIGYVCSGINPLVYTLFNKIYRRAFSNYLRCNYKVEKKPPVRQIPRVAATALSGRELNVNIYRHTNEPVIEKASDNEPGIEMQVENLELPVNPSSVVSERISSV
Summary of the method: (§1)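 Membranes from NIH3T3 cells stably expressing h5-HT2A or CHO cells stably expressing h5-HT2B/h5-HT2C; [3H]ketanserin used for 5-HT2A, [3H]mesulergine for 5-HT2B/2C. Compounds from 10 mM DMSO stocks, final DMSO ≤0.4%. Affinity from sigmoidal inhibition curves fitted by nonlinear regression.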

[3] = molecular target: T4, human recombinant 5-HT2B receptor (Homo sapiens, UniProt P41595); experiment: Affinity for 5-HT2B receptor binding sites (competitive radioligand binding, [3H]mesulergine); conditions: membranes of CHO with h5-HT2B, * = tested as hydrochloride salt
T4 construct: expressed in transfected cells; host or cells: CHO
T4 sequence (P41595 whole entry): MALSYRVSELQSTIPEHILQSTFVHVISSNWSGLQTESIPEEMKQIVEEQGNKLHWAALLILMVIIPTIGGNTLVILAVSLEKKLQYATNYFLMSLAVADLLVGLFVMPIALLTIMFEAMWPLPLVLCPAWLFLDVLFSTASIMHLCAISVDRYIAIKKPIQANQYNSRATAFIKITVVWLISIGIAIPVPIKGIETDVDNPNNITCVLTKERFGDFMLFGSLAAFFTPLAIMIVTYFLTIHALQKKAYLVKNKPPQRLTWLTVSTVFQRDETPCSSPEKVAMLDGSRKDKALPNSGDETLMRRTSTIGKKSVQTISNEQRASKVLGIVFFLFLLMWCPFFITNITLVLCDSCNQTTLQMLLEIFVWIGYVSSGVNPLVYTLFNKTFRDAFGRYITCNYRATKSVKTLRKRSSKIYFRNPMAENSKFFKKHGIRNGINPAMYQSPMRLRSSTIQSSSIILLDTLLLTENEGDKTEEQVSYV
Summary of the method: as §1

[4] = molecular target: T5, human recombinant 5-HT2A receptor (Homo sapiens, UniProt P28223); experiment: Affinity for 5-HT2A receptor binding sites (competitive radioligand binding, [3H]ketanserin); conditions: membranes of NIH3T3 with h5-HT2A, * = tested as hydrochloride salt
T5 construct: expressed in transfected cells; host or cells: NIH3T3
T5 sequence (P28223 whole entry): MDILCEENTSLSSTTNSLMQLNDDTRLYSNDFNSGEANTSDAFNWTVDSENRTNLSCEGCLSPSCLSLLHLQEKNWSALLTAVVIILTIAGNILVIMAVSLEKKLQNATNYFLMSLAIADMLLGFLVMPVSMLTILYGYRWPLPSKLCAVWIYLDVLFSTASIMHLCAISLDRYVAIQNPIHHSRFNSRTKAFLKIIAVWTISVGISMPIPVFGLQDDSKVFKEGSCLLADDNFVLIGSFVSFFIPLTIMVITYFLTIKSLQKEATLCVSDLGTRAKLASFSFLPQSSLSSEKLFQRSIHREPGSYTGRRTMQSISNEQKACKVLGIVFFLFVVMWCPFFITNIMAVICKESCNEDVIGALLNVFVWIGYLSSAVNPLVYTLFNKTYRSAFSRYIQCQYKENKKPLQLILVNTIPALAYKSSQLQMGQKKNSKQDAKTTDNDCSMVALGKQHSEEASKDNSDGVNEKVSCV
Summary of the method: as §1

Ki [1] [nM] | Ki (rat 5-HT7a receptor) [nM] | Ki [2] [nM] | Ki [3] [nM] | Ki [4] [nM] | Structure (SMILES)
300 | 220 | 430 | 25 | 170 | CCN(CC)c1nc2c(c(-c3ccc(C)cc3)n1)CCCNC2 [Example 2]
1460 | 1200 | > 10000 | 50 | 500 | CCN(CC)c1nc2c(c(-c3ccncc3)n1)CCNCC2 [Example 10, Diethyl-(4-pyridin-4-yl-6,7,8,9-tetrahydro-5H-pyrimido[4,5-d]azepin-2-yl)-amine hydrochloride]
84 | 29 | 40 | 7 | 20 | CCN(CC)c1nc2c(c(-c3ccc(F)cc3)n1)CCNCC2 [Example 9, Diethyl-[4-(4-fluoro-phenyl)-6,7,8,9-tetrahydro-5H-pyrimido[4,5-d]azepin-2-yl]-amine hydrochloride]

Structure (SMILES) | Ki [1] [nM] | Ki (rat 5-HT7a receptor) [nM] | Ki [2] [nM] | Ki [3] [nM] | Ki [4] [nM]
CCN(CC)c1nc2c(c(-c3ccc(OC)cc3)n1)CCCNC2 [Example 3, Diethyl-[4-(4-methoxy-phenyl)-6,7,8,9-tetrahydro-5H-pyrimido[4,5-c]azepin-2-yl]-amine] | 160 | 240 | 400 | 20 | 200
CC1CCCCN1c1nc2c(c(-c3ccc(C#N)cc3)n1)CCCNC2 (stereo not shown) [Example 7, 4-[2-(2-Methyl-piperidin-1-yl)-6,7,8,9-tetrahydro-5H-pyrimido[4,5-c]azepin-4-yl]-benzonitrile] | 1240 | > 10000 | 3200 | 280 | 400
